Test results from patent publication US20050208678A1, “Anti-fusion assay” (priority 2001, published 2005).
Where no end group is shown, it is not given here.

Tests used:
IQN17 = experiment: Binding of Alexa-C28 to IQN17, titration measured by capillary zone electrophoresis; parameters: species or system HIV-1; details: 5 μM Alexa-C28, increasing concentration of IQN17, FIG. 3
Protocol: Eckert et al., Cell 99, 103-115 (1999). C28 was labeled with the fluorescent molecule, Alexa-430 (Molecular Probes) at its carboxyl terminal (Alexa-C28). The binding was measured by titration of labeled C28 with IQN17. The concentration of bound and unbound C28 was measured by capillary zone electrophoresis.
Capillary Electrophoresis Separations. Capillary electrophoresis experiments were conducted on a Beckman Coulter P/ACE System MDQ and a Spectrumedix 9610HTS. […] Separations were conducted with an applied voltage of 30 kV. The capillaries used in the Spectrumedix 9610HTS has an inner diameter of 50 μm, effective length of 50 cm, and an inner surface of fused silica. Separations were conducted with an applied voltage of 13 kV. Separation buffer was 20 mM Sodium Borate, pH=8.5. Peptides traveling passed a fluorescence detector were excited by a laser emitting at 488 nm. The peaks were analyzed using software packages supplied by the instrument companies. In the figures, RFU refers to relative fluorescence units.
Binding of C28 to IQN17: Peptide concentrations were determined by weight. […] The binding affinity of C28 to IQN-17 was determined by a capillary electrophoresis (FIG. 3). […]
The area of the Alexa-C28 peaks in increasing concentrations of IQN-17 was analyzed in comparison to the area of Alexa-C28 in the absence of IQN-17 by capillary zone electrophoresis. […]

[1] = target: IQN17 (HIV-1 (gp41 segment); GCN4-pIQI segment designed)

With “Alexa-C28: C28 labeled with the fluorescent molecule Alexa-430 at its carboxyl terminal (WMEWDREINNYTSLIHSLIEESQNQQEK-{Alexa‑430})” the “amount of unbound peptide (broader peak on the right) in titration” value (IQN17) was “decreased from 100% to 0%”.

In the case of WMEWDREINNYTSLIHSLIEESQNQQEK (modifications not checked) [Alexa-C28], the percent of C28 bound [1] is reported as 80%.
